Experiments:
ketamine anesthesia = assay: EEG power and mean arterial pressure during continuous ketamine infusion; assay type: in vivo, rat; conditions: escalating phenylephrine infusion 4 to 10 μg/kg/min; n=3
[1] = Direct 1H NMR titration, 1:1 binding model; conditions: 20 mM NaH2PO4 buffered (pH 7.4) D2O
Protocol: A direct titration was performed between the host and guest. The concentration of the host was kept constant while varying the concentration of the guest and the change in chemical shift of a selected host signal was measured. The change in chemical shift as a function of guest concentration was fitted to a 1:1 binding model to determine the Ka. In some cases, the concentration of guest was fixed and host concentration was varied, depending on the availability of a suitable ^1H NMR peak whose chemical shift change could be easily monitored.
1:1 Binding Model for NMR

Structure (SMILES) | effect on MAP and EEG power during steady state shallow ketamine anesthesia (ketamine anesthesia) | Binding Constant with Host (Ka), morphine [1] | Binding Constant with Host (Ka), cocaine ([1]; 1:1 model) | Binding Constant with Host (Ka), ketamine ([1]; 1:1 model) | Binding Constant with Host (Ka), methamphetamine ([1]; 1:1 model) | Binding Constant with Host (Ka), phencyclidine ([1]; 1:1 model) | Binding Constant with Host (Ka), ketamine ([1]; 1:1 model, listed as 4-suldo calix[4]arene)
CNC[C@H](O)c1cccc(O)c1 [phenylephrine] | significant MAP increases without effects on EEG power |  |  |  |  |  | 
O=C1N2CN3C(=O)N4CN5C(=O)N6CN7C(=O)N8CN9C(=O)N%10CN%11C(=O)N%12CN%13C(=O)N%14CN1C1C2N2CN%15C(=O)N(CN%16C(=O)N(CN%17C(=O)N(CN%18C(=O)N(CN%19C(=O)N(CN%20C(=O)N(CN1C2=O)C%14C%13%20)C%12C%11%19)C%10C9%18)C8C7%17)C6C5%16)C4C3%15 (centres unmarked) [CB[7], cucurbit[7]uril] |  | <10^3 M^−1 |  |  |  |  | 
O=S(=O)(O)c1cc2c(O)c(c1)Cc1cc(S(=O)(=O)O)cc(c1O)Cc1cc(S(=O)(=O)O)cc(c1O)Cc1cc(S(=O)(=O)O)cc(c1O)C2 [4-sulfo calix[4]arene] |  | (4.9±0.3)×10^4 M^−1 | (4.3±1.5)×10^4 M^−1 | ~10^5 M^−1 | (3.8±0.6)×10^4 M^−1 | (5.0±0.6)×10^4 M^−1 | ~10^5 M^−1
